The text below walks through data of patent US5773447A, “Compounds for treating disorders of lipid metabolism and their preparation” (Hoechst Aktiengesellschaft, priority 1996, dated 1998).

Each structure is given as a SMILES string. Where a name gives a salt, the structure may show the parent alone.

The nature of series [1]: Metabolic stability: dealkylation to compound A in in vitro incubations (HPLC). As to conditions: human, liver 9000 g fraction, 37° C., R1-dealkylated metabolite, read-out: relative content of compound A; for metabolised at 0.5 h: incubation time 0.5 h; for metabolised at 1 h: incubation time 1 h; for metabolised at 2 h: incubation time 2 h; for metabolised at 3 h: incubation time 3 h. The class given is in vitro ADME. The text has this:
It is known that compounds of formula I where R^1 =alkyl are degraded in the metabolism to compounds of the formula I where R^1 =H (in the following called compound A). Accordingly, the instant inventors sought to investigate the metabolic fate of our inventive compounds. The following experiments, which can be carried out using intact human hepatocytes or liver extracts, are used to investigate the dealkylation tendency of the compounds of the formula I according to the invention in comparison to 4-amino-2-(4,4-dimethyl-2-oxoimidazolidin-1-yl)pyrimidine-5-N-(ethyl)-N-(3-trifluoromethyl-phenyl)carboxamide hydrochloride (compound of Example 2 from EP 0 557 879--in the following called compound B).
Frozen samples of pieces of human liver stored at -78° C. were thawed by introducing them into a 1.1% strength potassium chloride solution at a temperature of 4° C. […] After thawing, the pieces of liver were prepared by standard processes [A. Y. H. Lu, W. Levin; Biochem. Biophys. Res. Comm. 46, 1339-1344 (1972), P. G. Gervasi et al.; Xenobiotica 12/8, 517 (1982)]. The temperature was kept between 0° and 4° C. during the preparation. The 9000 g fractions of ten human livers were mixed in order to exclude interindividual enzyme differences.
The test substances were dissolved in DMSO at a concentration of about 10 mg/ml. Aliquot parts of this solution were added under sterile conditions to the hepatocyte cultures or the 9000 g fractions. The incubations were carried out at 37° C. in an atmosphere having 5% CO2 and >90% atmospheric humidity. […] NADPH and Mg^2+ were added to the 9000 g fractions as cofactors [P. G. Gervasi et al.; Xenobiotica 12/8, 517 (1982)]. All samples were frozen immediately after incubation and stored at below -20° C. until analysis.
For each species and each time, all incubations with hepatocytes and 9000 g fractions were carried out without addition of a test substance. The samples obtained were used as controls in the chromatographic analysis.
For the quantitative determination of compound A, i.e. the R^1 -dealkylated metabolite, in the in vitro incubation mixtures, […] of each mixture was in each case diluted with […] of bovine serum. These samples were analyzed by the following test for the determination of compound B free base and metabolite compound A free base in serum:
Fifty microliters of the prepared solution of an internal standard (10 μg of a compound of the formula I where R^1 =CH3, R^2, R^3 =H and R^4 =CF3 /ml of methanol), 0.1 ml of sodium acetate buffer (0.4M, pH 5.5) and 5 ml of ethyl ether were added to 0.1 ml of serum. The mixture was shaken for 20 min. After centrifuging, 4 ml of the organic phase were transferred, 3 ml of n-hexane were added and the mixture was extracted with 0.5 ml of 1% strength (v/v) aqueous trifluoroacetic acid. The upper organic layer was aspirated off and discarded. The aqueous residue was evaporated at 40° C. for 30 min. in order to remove residues of the organic solvent. 100 μl of the remaining aqueous phase were injected into the HPLC apparatus. HPLC analysis was carried out on a C18 RP column (TosoHaas Semi-Micro TSK gel ODS 80 TS) using a mobile phase of 800 g of water, 270 g of acetonitrile and 1 ml of trifluoroacetic acid. The flow rate was 0.2 ml/min. The quantitative determination of the analytes was carried out by measuring the peak heights with the aid of a UV detector at γ=240 nm. The calibration range was between 50 and 0.05 μg/ml corresponding to 200 to 0.2 μg/ml in the undiluted in vitro sample. The detection limit was 0.05 μg/ml corresponding to 0.2 μg/ml in the undiluted in vitro sample.

Series [2] deals with LDL receptor mRNA. Kind of series: Stimulation of LDL receptor mRNA expression in rat livers after administration (Northern blot). The class given is in vivo. The conditions noted are these: rat liver, 6 hours after administration, untreated control=100%. The text has this:
(§1) Using a surrogate system, the present inventors sought to confirm the pharmacological activity of the inventive compounds. Thus, utilizing the human hepatocytoma cell line HepG2, which is recognized on all sides as a model, it was observed that the LDL receptor mRNA levels are increased by the compounds of the formula I (Table I). Even in rat livers, within a few hours the LDL receptor mRNA levels are increased by the compounds of the formula I (Table II). The observed stimulation is in the range from 170 to 350% of the controls (control=100%). Accordingly, an effective amount of an inventive compound can include an amount sufficient to increase CDL receptor levels or reduce plasma lipid levels.
The preparation of the mRNA was carried out according to the method of Chomczynski, P. and Sacchi, N., Anal. Biochem. 162, 156-159 (1987). In organs (such as, for example, liver), the deep-frozen tissue was homogenized on dry ice beforehand in a mortar, and the mRNA was further enriched by means of Oligo dT according to standard methods (cf. Sambrook, J., Fritsch, E. F. and Maniatis, T., Molecular Cloning, second Edition, Cold Spring Harbor (1989); in this collection of methods, there are also descriptions of all further relevant molecular biology standard methods used here). Five to […] of the dissolved mRNA thus obtained were denatured according to standard methods and separated on 1% horizontal agarose gels. The mRNA was transferred to Hybond N membranes (Amersham) by means of capillary blot. The specific hybridization probe used was a partial LDL receptor cDNA clone and the internal standard a plasmid which contained a β-actin gene. Both plasmids were labeled by means of a random primer kit from Amersham up to a specific activity of 5×10^9 cpm/μg. Prehybridization, hybridization and washing of the filters were carried out by standard methods. The filters were then exposed at -70° C. on Cronex 4 films (Dupont) overnight up to 14 days in the presence of an intensifying screen, and the hybridization signals were quantified using a commercial laser densitometer by means of the film-blackening intensity. The quotient of the intensity of the LDL receptor band and of the actin band was then determined as an internal standard to correct yield variations.
Liver tissue was removed and shock-frozen in liquid nitrogen. The mRNA was then isolated as described, and the relative LDL receptor mRNA levels were determined by means of the Northern blot technique. The mRNA levels of untreated control animals were set at 100%, and the stimulation of the LDL receptor mRNA in percent of the control was calculated.

Series [3] deals with LDL receptor mRNA. In words: Stimulation of LDL receptor mRNA expression in HepG2 cells (Northern blot). It is filed as cell-based. As to conditions: Homo sapiens, 2 × 10^-6 M, 16 h incubation, 10% fetal calf serum, LDL receptor/β-actin quotient, control=100%.
Text: as §1
The preparation of the mRNA was carried out according to the method of Chomczynski, P. and Sacchi, N., Anal. Biochem. 162, 156-159 (1987). In organs (such as, for example, liver), the deep-frozen tissue was homogenized on dry ice beforehand in a mortar, and the mRNA was further enriched by means of Oligo dT according to standard methods (cf. Sambrook, J., Fritsch, E. F. and Maniatis, T., Molecular Cloning, second Edition, Cold Spring Harbor (1989); in this collection of methods, there are also descriptions of all further relevant molecular biology standard methods used here). […] The filters were then exposed at -70° C. on Cronex 4 films (Dupont) overnight up to 14 days in the presence of an intensifying screen, and the hybridization signals were quantified using a commercial laser densitometer by means of the film-blackening intensity. The quotient of the intensity of the LDL receptor band and of the actin band was then determined as an internal standard to correct yield variations.
Table I presents the stimulation of the LDL receptor mRNA expression in HepG2 cells by selected compounds of formula I in whole serum (final concentration of the compounds […]) after a 16 h incubation. […] The total mRNA was then prepared, and the relevant LDL receptor mRNA and β-actin mRNA levels were determined by means of the Northern blot technique. […]

In the case of `CC1(C)CN(c2ncc(C(=O)N(CCF)c3cccc(C(F)(F)F)c3)c(N)n2)C(=O)N1` [Example 12, 4-Amino-2-(4,4-dimethylimidazolidin-2-on-1-yl)pyrimidine-5-[N-(3-trifluoromethylphenyl)-N-(2-fluoroethyl)]carboxamide], in series [1], the metabolised at 0.5 h amounted to 2%, the metabolised at 1 h amounted to 4%, the metabolised at 2 h was 6% and the metabolised at 3 h came to 9%.

`CC1(C)CN(c2ncc(C(=O)N(CC(F)(F)C(F)(F)C(F)(F)F)c3ccc(F)c(C(F)(F)F)c3)c(N)n2)C(=O)N1` [Example 17, 4-Amino-2-(4,4-dimethylimidazolidin-2-on-1-yl)-5-pyrimidine-5-[N-(3-trifluoromethyl-4-fluorophenyl)-N-(2,2,3,3,4,4,4-heptafluorobutyl)]-carboxamide]: the response vs control in vivo at 30 mg/kg with LDL receptor mRNA [2] is 195%.

For the molecule `CC1(C)CN(c2ncc(C(=O)N(CC(F)(F)F)c3ccc(Cl)c(C(F)(F)F)c3)c(N)n2)C(=O)N1` [Example 8, 4-Amino-2-(4,4-dimethylimidazolidin-2-on-1-yl)pyrimidine-5-N-[(4-chloro-3-trifluoromethyl)phenyl]-N-(2,2,2-trifluoroethyl)carboxamide hydrochloride], the response vs control in vivo at 30 mg/kg with LDL receptor mRNA [2] amounted to 182%.

For the molecule `CC1(C)CN(c2ncc(C(=O)N(CC(F)(F)C(F)(F)C(F)(F)F)c3ccc(Cl)c(C(F)(F)F)c3)c(N)n2)C(=O)N1` [Example 10, 4-Amino-2-(4,4-dimethylimidazolidin-2-on-1-yl)pyrimidine-5-N-[(4-chloro-3-trifluoromethyl)phenyl]-N-(2,2,3,3,4,4,4-heptafluorobutyl)carboxamide], the activity at 2 µM with LDL receptor mRNA [3] came out at 206%.

Turning to `CC1(C)CN(c2ncc(C(=O)N(CC(F)(F)C(F)(F)F)c3ccc(Cl)c(C(F)(F)F)c3)c(N)n2)C(=O)N1` [Example 9, 4-Amino-2-(4,4-dimethylimidazolidin-2-on-1-yl)pyrimidine-5-N-[(4-chloro-3-trifluoromethyl)phenyl]-N-(2,2,3,3,3-pentafluoropropyl)carboxamide], the response vs control in vivo at 30 mg/kg in the series on LDL receptor mRNA [2] was 193%.

`CC1(C)CN(c2ncc(C(=O)N(CC(F)(F)C(F)(F)F)c3cccc(C(F)(F)F)c3)c(N)n2)C(=O)N1` [Example 3, 4-Amino-2-(4,4-dimethylimidazolidin-2-on-1-yl-pyrimidine-5-N-(2,2,3,3,3-pentafluoropropyl)-N-[(3trifluoromethyl)phenyl]carboxamide hydrochloride] showed a response vs control in vivo at 30 mg/kg in the series on LDL receptor mRNA [2] of 200%.

As for `CC1(C)CN(c2ncc(C(=O)N(CC(F)(F)C(F)(F)C(F)(F)F)c3cc(C(F)(F)F)ccc3Cl)c(N)n2)C(=O)N1` [Example 14, 4-Amino-2-(4,4-dimethylimidazolidin-2-on-1-yl)pyrimidine-5-[N-(3-trifluoromethyl-6-chlorophenyl)-N-(2,2,3,3,4,4,4-heptafluorobutyl)]-carboxamide], the response vs control in vivo at 30 mg/kg with LDL receptor mRNA [2] stood at 194%.

Consider `CC1(C)CN(c2ncc(C(=O)N(CC(F)(F)C(F)(F)F)c3cc(C(F)(F)F)ccc3Cl)c(N)n2)C(=O)N1` [Example 11, 4-Amino-2-(4,4-dimethylimidazolidin-2-on-1-yl)pyrimidine-5-N-[(6-chloro-3-trifluoromethyl)phenyl]-N-(2,2,3,3,3-pentafluoropropyl)carboxamide hydrochloride], for which the activity at 2 µM in the series on LDL receptor mRNA [3] was 290%.

On to `CC1(C)CN(c2ncc(C(=O)N(CC(F)(F)F)c3ccc(F)c(C(F)(F)F)c3)c(N)n2)C(=O)N1` [Example 6, 4-Amino-2-(4,4-dimethylimidazolidin-2-on-1-yl)pyrimidine-5-N-(2,2,2-trifluoroethyl)-N-[(4-fluoro-3-trifluoromethyl)phenyl]carboxamide], for which, in the series with LDL receptor mRNA [2], the response vs control in vivo at 30 mg/kg amounted to 216%.

As for `CC1(C)CN(c2ncc(C(=O)N(CC(F)(F)C(F)(F)C(F)(F)F)c3cccc(C(F)(F)F)c3)c(N)n2)C(=O)N1` [Example 2, 4-Amino-2-(4,4-dimethylimidazolidin-2-on-1-yl)pyrimidine-5-N-(2,2,3,3,4,4,4-heptafluorobutyl)-N-[(3-trifluoromethyl)phenyl]carboxamide hydrochloride], the response vs control in vivo at 30 mg/kg in the series with LDL receptor mRNA [2] was 245%. For the same molecule, in series [1], the metabolised at 0.5 h is less than 2%, the metabolised at 1 h is less than 2%, the metabolised at 2 h is less than 2% and the metabolised at 3 h was less than 2%.

Turning to `CCN(C(=O)c1cnc(N2CC(C)(C)NC2=O)nc1N)c1cccc(C(F)(F)F)c1` [Compound B, 4-amino-2-(4,4-dimethyl-2-oxoimidazolidin-1-yl)pyrimidine-5-N-(ethyl)-N-(3-trifluoromethyl-phenyl)carboxamide hydrochloride, reference compound], in series [1], the metabolised at 0.5 h amounted to 4%, the metabolised at 1 h worked out at 8%, the metabolised at 2 h stood at 10% and the metabolised at 3 h amounted to 12%.
